The text below walks through data of article PMC8408929, “Influence of osmolality on gastrointestinal fluid volume and drug absorption: potential impact on oral salt supplementation” (Journal of Pharmaceutical Health Care and Sciences, 2021).

One data set deals with intestine. Also noted: method as in PMID 28450238. To be noted: administered in purified water vs isosmotic solution; cited from earlier work.
Details of data set [1]: method as in not given. To be noted: low-permeability drugs; ref not given; cited from earlier work.
Data set [2] relates to rat intestine (jejunum, ileum and colon). In words: in situ rat intestinal closed loop method. The following applies: 30 min. How it is done: The in situ rat intestinal closed loop method was carried out as described previously. Male Wistar rats (7–8 weeks old; 250 ± 20 g body weight) were fasted overnight and anesthetized by intraperitoneal injection of a triple anesthetic combination (medetomidine, midazolam and butorphanol). The abdominal cavity was opened and an intestinal loop (jejunum, 10 cm; ileum, 10 cm; colon, 7 cm) was made by cannulation into both ends of the jejunum, ileum and colon with silicone tubing (i.d., 3 mm). The intestinal contents were washed out through the cannulas with saline. […] One mL of test compound solution (10 μM) was introduced into the intestinal loop and both ends of the loop were ligated. At the designated times (30 min), test compound solution in the loop was collected by flushing with air (for measuring the luminal concentration of test compound, Cout), and then made up to 10 mL with buffer solution (for measuring the amount of test compound, Xout). The volume of luminal water (mL) in each segment of intestine was calculated using the following equation: 1 Vwater=Xout/Cout where Vwater (mL) is the water volume in each segment of intestine, Cout is the luminal concentration of test compound (μM), and Xout is the amount of test compound (μmol). The fraction absorbed of test compound was calculated from the remaining amount of test compound in each intestinal loop. Final results were normalized to the surface area calculated from the radius and length of each segment of intestine. The radii of the small and large intestines reported by Fagerholm et al. were used (0.178 cm and 0.252 cm, respectively).
Concentrations of FD-4 were measured with a microplate fluorescence reader (VarioskanTM Flash 2.4; Thermo Fisher Scientific Inc., Kanagawa, Japan) at excitation/emission wavelengths of 492/515 nm.
An Agilent Eclitse plus (C18, 50 × 2.1 mm, 5 μm) was used as the analytical column. […] Analyst software version 1.4.2 (AB SCIEX) was used for data manipulation.

On to `Cc1cc(=O)n(-c2ccccc2)n1C` [antipyrine], for which the “fraction absorbed, purified water compared with isosmotic solution” value in the data set on intestine was “no significant difference”.
For `CC(C)NCC(O)COc1ccc(CC(N)=O)cc1` (stereo not shown) [atenolol], in the data set with intestine, the “fraction absorbed, purified water compared with isosmotic solution” value was “significantly greater”.
On to `NS(=O)(=O)c1cc(C(=O)O)c(NCc2ccco2)cc1Cl` [furosemide], for which the “BCS Class” value in data set [1] is “Class IV”.
Turning to `Cc1ccccc1C(=O)Nc1ccc(C(=O)N2CCCC(O)c3cc(Cl)ccc32)c(C)c1` (stereo not shown) [tolvaptan], the “BCS Class” value in data set [1] is given as “Class IV”.
As to “fluorescein isothiocyanate-dextran 4000 [FD-4]”, the luminal concentration in data set [2] (colon, 10 μM dosed in hyperosmotic solution (10% NaCl)) turned out to be 6.25 ± 0.15 µM; in data set [2] (colon, 10 μM dosed in purified water), 27.4 ± 2.0 µM; in data set [2] (ileum, 10 μM dosed in hyperosmotic solution (10% NaCl)), 6.47 ± 0.68 µM; in data set [2] (ileum, 10 μM dosed in purified water) it was 13.2 ± 0.7 µM; in data set [2] (jejunum, 10 μM dosed in hyperosmotic solution (10% NaCl)) it was 5.30 ± 0.31 µM; in data set [2] (jejunum, 10 μM dosed in purified water) it was 13.7 ± 0.8 µM.
